Laboratory results as given in US20250041363A1, “COMPOSITIONS AND METHODS FOR TREATMENT OF ALCOHOL USE DISORDER AND ALCOHOL-ASSOCIATED LIVER DISEASE” (UNIVERSITY OF LOUISVILLE RESEARCH FOUNDATION, INC., priority 2023, published 2025).

Columns and labels:
Format in all cases: in vivo, human
[1] = tested on: patients with moderately severe acute alcohol associated hepatitis (mAH, MELD <21) with heavy alcohol drinking; assay: Double-blind placebo-controlled trial of LGG: alcohol consumption (monthly alcohol use questionnaire); settings: for #Drinks (Weekly): LGG arm, baseline 34.71 ± 21.99
Excerpt: Conduct a pilot double-blind treatment trial identifying the dual therapeutic role of LGG in patients with comorbid AUD and moderate AH. Evaluate the therapeutic effects of LGG on lowering alcohol consumption over 6 months of treatment compared to placebo. Evaluate the therapeutic outcomes of LGG treatment on liver injury, progression and prognosis compared to placebo. Validate the central role of gut dysfunction in the altered gut-liver and gut-brain response in patients with AUD and moderate AH.
(§1) We analyzed data from 46 participants in a large NIAAA-funded clinical trial performed at 4 medical centers (DASH Consortium). This investigation was a double-blind placebo-controlled study of patients with moderately severe acute alcohol associated hepatitis (mAH, MELD <21) who had pre-existing/ongoing heavy alcohol drinking, with clinical assessments at multiple time points. Data on demographics, drinking, and liver injury were collected and assessed at baseline (BL), 1-month (1-m), 3-months (3-m), and 6-months (6-m). Alcohol consumption was measured by baseline AUDIT, monthly alcohol use questionnaire; and liver injury was assessed by standard liver injury markers. All patients received standard medical management for liver disease and counseling for AUD in the standard of care protocol.

AUD patients = assay: Pilot study of LGG in AUD patients: heavy drinking markers; settings: AUD patients treated for 6-months, preliminary results
[2] = tested on: patients with moderately severe acute alcohol associated hepatitis (mAH, MELD <21) with heavy alcohol drinking; assay: Double-blind placebo-controlled trial of LGG: liver injury, severity and progression markers; settings: for INR / ABIC / MELD / Creatinine / Albumin / AST:ALT / Total Bilirubin / ALT / AST: LGG arm; for INR: baseline 1.453 ± 0.35; for ABIC: baseline 6.3 ± 1.26; for MELD: baseline 17.42 ± 1.79; for Creatinine: baseline 0.64 ± 0.17; for Albumin: baseline 2.7 ± 0.6; for AST:ALT: baseline 2.74 ± 1.54; for Total Bilirubin: baseline 7.2 ± 4.5; for ALT: baseline 73.7 ± 46.7; for AST: baseline 169.0 ± 88.4
Excerpt: as §1

Question: Which “drinking level reached (social or abstinence level)” value ([1]; 6-month assessment, compared to placebo) does the source give for Lactobacillus rhamnosus GG [LGG] here?
Answer: The value was under 4 drinks/week.

Question: What about the “change in average drinks/week in LGG arm compared to the placebo arm” value ([1]; 6-month assessment, p=0.0128) of the same substance?
Answer: The value was “significant drop”.

Question: And the “heavy drinking levels after treatment” value ([1]; 6 months of LGG treatment)?
Answer: The value was “reduced heavy drinking levels to the social drinking or abstinence levels”.

Question: What about the “#Drinks (Weekly)” value ([1]; 1 month, n = 23) of the same substance?
Answer: Its value is 1.81 ± 3.77.

Question: What about the “#Drinks (Weekly)” value ([1]; 3 month, n = 18) of the same substance?
Answer: The value was 2.83 ± 7.71.

Question: What about the “#Drinks (Weekly)” value ([1]; 6 month, n = 16) of the same substance?
Answer: Its value is 0.31 ± 1.01.

Question: What about the “lowering of alcohol consumption (average drinking/week) over 6 months within group” value ([1]; over 6 months, p≤0.001 in the LGG group) of the same substance?
Answer: Its value is “significant, with higher significance”.

Question: What about the “patients with reduction of alcohol drinks/week to the level of social drinking criteria” value ([1]; vs four of the 22 placebo, Fisher's exact test p=0.0012, Likelihood ratio=9.0) of the same substance?
Answer: Its value is “sixteen of the 24”.

Question: What about the heavy drinking markers (AUD patients) of the same substance?
Answer: The heavy drinking markers was “reduction of heavy drinking markers”.

Question: And the “1 month change in MELD, LGG arm compared to the placebo arm” value ([2]; 1 month, FIG. 2A)?
Answer: Its value is “significantly dropped”.

Question: What about the “1 month change in ABIC score” value ([2]; 1 month, FIG. 2C, p=0.005) of the same substance?
Answer: The value was “dropped significantly”.

Question: What about the “drop in the AST:ALT ratio, LGG arm compared to the placebo arm” value ([2]; FIG. 2B) of the same substance?
Answer: The value was “significant”.

Question: What about the INR ([2]; 1 month, n = 17) of the same substance?
Answer: The INR was 1.32 ± 0.3 Unit Score.

Question: And the ABIC ([2]; 1 month, n = 17)?
Answer: The ABIC was 5.84 ± 1.2 Unit Score.

Question: What about the MELD ([2]; 1 month, n = 17) of the same substance?
Answer: The MELD was 13.29 ± 4.34 Unit score.

Question: What about the Creatinine ([2]; 1 month, n = 18) of the same substance?
Answer: The Creatinine was “.81 ± 0.5 mg/dL”.

Question: What about the Albumin ([2]; 1 month, n = 18) of the same substance?
Answer: The Albumin was 3.5 ± 0.8 g/dL.

Question: And the “AST:ALT” value ([2]; 1 month, n = 18)?
Answer: The value was 1.99 ± 1.2.

Question: What about the “Total Bilirubin” value ([2]; 1 month, n = 18) of the same substance?
Answer: The value was 2.54 ± 1.4 mg/dL.

Question: And the ALT ([2]; 1 month, n = 18)?
Answer: The ALT was 43.6 ± 44.9 U/L.

Question: What about the AST ([2]; 1 month, n = 18) of the same substance?
Answer: The AST was 71.72 ± 59.9 U/L.

Question: What about the Creatinine ([2]; 3 month, n = 17) of the same substance?
Answer: The Creatinine was 0.90 ± 0.4 mg/dL.

Question: And the INR ([2]; 3 month, n = 17)?
Answer: Its INR is 1.31 ± 0.45 Unit Score.

Question: And the Albumin ([2]; 3 month, n = 17)?
Answer: Its Albumin is 3.6 ± 0.9 g/dL.

Question: What about the “AST:ALT” value ([2]; 3 month, n = 17) of the same substance?
Answer: Its value is 1.7 ± 0.82.

Question: And the ABIC ([2]; 3 month, n = 17)?
Answer: Its ABIC is 5.98 ± 1.5 Unit Score.

Question: And the “Total Bilirubin” value ([2]; 3 month, n = 17)?
Answer: The value was 3.82 ± 8.3 mg/dL.

Question: And the MELD ([2]; 3 month, n = 17)?
Answer: Its MELD is 12.06 ± 7.73 Unit score.

Question: What about the ALT ([2]; 3 month, n = 17) of the same substance?
Answer: The ALT was 33.39 ± 36.27 U/L.

Question: And the AST ([2]; 3 month, n = 17)?
Answer: The AST was 58.65 ± 51.9 U/L.

Question: And the “Total Bilirubin” value ([2]; 6 month, n = 15)?
Answer: The value was 2.8 ± 3.84 mg/dL.

Question: What about the MELD ([2]; 6 month, n = 15) of the same substance?
Answer: Its MELD is 12.40 ± 8.4 Unit score.

Question: And the Creatinine ([2]; 6 month, n = 16)?
Answer: The Creatinine was 0.88 ± 0.35 mg/dL.

Question: What about the INR ([2]; 6 month, n = 16) of the same substance?
Answer: The INR was 1.41 ± 0.69 Unit Score.

Question: And the Albumin ([2]; 6 month, n = 16)?
Answer: Its Albumin is 4.01 ± 0.94 g/dL.

Question: And the “AST:ALT” value ([2]; 6 month, n = 16)?
Answer: Its value is 1.65 ± 0.97.

Question: What about the ABIC ([2]; 6 month, n = 16) of the same substance?
Answer: The ABIC was 6.08 ± 1.46 Unit Score.

Question: What about the ALT ([2]; 6 month, n = 16) of the same substance?
Answer: The ALT was 38.75 ± 32.48 U/L.

Question: And the AST ([2]; 6 month, n = 16)?
Answer: Its AST is 48.75 ± 25.20 U/L.

Question: And the “biomarkers of liver injury progression and severity” value ([2]; LGG treatment, summary)?
Answer: Its value is “significant reduction”.
